A word on the IC50: it is the concentration needed to halve the response being measured.

Here are results for 8 compounds from patent US20120015907A1, “Furopyridine compounds and uses thereof” (NOVARTIS AG, priority 2010, published 2012).

The target in one assay is T1, HCV polymerase (Hepatitis C virus genotype 1b, UniProt Q9WMX2).
T1 construct: (His)6 (C)
Put plainly: biochemical. The note with it: polymerase assay of Biological Example 1; read-out: NS5B polymerase IC50.

Assay [1] concerns HCV replicon I389luc-ubi-neo/NS3-3'/ET in ET (Huh-lucubineo-ET) cells. Kind of assay: Replicon assay (Biological Example 2), luciferase read-out. Type of assay: cell-based. The settings on record: Hepatitis C virus, luciferase activity 48 hours after compound addition. In outline: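 ET cells stably carry the replicon with adaptive mutations E1202G, […] and K1846T. Compound is added 24 h after plating at 0.1 nM–50 μM final (10-point, 3-fold dilutions) with 0.5% DMSO, and luciferase is read 48 h later. EC50 comes from a Hill-equation fit of % inhibition versus no-compound control.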
(A replicon is a self-replicating genome or part of one, used to study replication in cells.)

Some results are limits rather than exact numbers.

With `CNC(=O)c1c(-c2ccc(Cl)cc2)oc2nc(N(CCCC(C)(C)C(=O)O)S(C)(=O)=O)c(C3CC3)cc12` [Example 28.3, 5-(N-(2-(4-chlorophenyl)-5-cyclopropyl-3-(methylcarbamoyl)furo[2,3-b]pyridin-6-yl)methylsulfonamido)-2,2-dimethylpentanoic acid], the IC50 at HCV polymerase was 2 nM; in assay [1], at most 100 nM.

On to `CNC(=O)c1c(-c2ccc(C)cc2)oc2nc(N(CCCC(C(=O)O)c3ccccc3)S(C)(=O)=O)c(C3CC3)cc12` (stereo not shown) [Example 28.5, 5-(N-(5-cyclopropyl-3-(methylcarbamoyl)-2-p-tolylfuro[2,3-b]pyridin-6-yl)methylsulfonamido)-2-phenylpentanoic acid], for which the IC50 at HCV polymerase is 1 nM; in assay [1], at most 100 nM.

On to `CNC(=O)c1c(-c2ccc(F)cc2)oc2nc3c(cc12)C(C)CCCN3S(C)(=O)=O` (stereo not shown) [Example 30, 2-(4-Fluoro-phenyl)-9-methanesulfonyl-5-methyl-6,7,8,9-tetrahydro-5H-1-oxa-9,10-diaza-cyclohepta[f]indene-3-carboxylic acid methylamide], for which the IC50 was 62 nM on HCV polymerase and at most 100 nM in assay [1].

As to `CNC(=O)c1c(-c2ccc(F)cc2)oc2nc3c(cc12)C(C)C(O)CCN3S(C)(=O)=O` (stereo not shown) [Example 31, 2-(4-Fluoro-phenyl)-6-hydroxy-9-methanesulfonyl-5-methyl-6,7,8,9-tetrahydro-5H-1-oxa-9,10-diaza-cyclohepta[f]indene-3-carboxylic acid methylamide], the values for the IC50 (on HCV polymerase; in assay [1]) were 35 nM and at most 100 nM, respectively.

On to `CNC(=O)c1c(-c2ccc(F)cc2)oc2nc3c(cc12)CCCCCN3S(C)(=O)=O` [Example 36, 2-(4-Fluoro-phenyl)-10-methanesulfonyl-5,6,7,8,9,10-hexahydro-1-oxa-10,11-diaza-cycloocta[f]indene-3-carboxylic acid methylamide], for which the IC50 on HCV polymerase was 50 nM; in assay [1], at most 100 nM.

For the compound `CNC(=O)c1c(-c2ccc(F)cc2)oc2nc3c(cc12)C(C)OCCN3S(C)(=O)=O` (stereo not shown) [Example 36.2, 2-(4-Fluoro-phenyl)-9-methanesulfonyl-5-methyl-5,7,8,9-tetrahydro-1,6-dioxa-9,10-diaza-cyclohepta[f]indene-3-carboxylic acid methylamide], the IC50 was 35 nM on HCV polymerase and at most 100 nM in assay [1].

In the case of `CNC(=O)c1c(-c2ccc(F)cc2)oc2nc3c(cc12)C(C)CCCCN3S(C)(=O)=O` (stereo not shown) [Example 36.3, 2-(4-Fluoro-phenyl)-10-methanesulfonyl-5-methyl-5,6,7,8,9,10-hexahydro-1-oxa-10,11-diaza-cycloocta[f]indene-3-carboxylic acid methylamide], the IC50 at HCV polymerase was 70 nM; in assay [1], at most 100 nM.

In the case of `CNC(=O)c1c(-c2ccc(F)cc2)oc2nc3c(cc12)CCCCCCN3S(C)(=O)=O` [Example 36.4, 2-(4-Fluoro-phenyl)-11-methanesulfonyl-6,7,8,9,10,11-hexahydro-5H-1-oxa-11,12-diaza-cyclonona[f]indene-3-carboxylic acid methylamide], the results for the half-maximal inhibitory concentration (IC50) (at HCV polymerase; in assay [1]) were 5 nM and at most 100 nM, respectively.
